Here are results for three compounds from BindingDB's records for patent US20240059675 (Boehringer Ingelheim International, 2024).

Assay [1] has as its target Glutaminyl-peptide cyclotransferase-like protein (Homo sapiens, UniProt Q9NXS2). In words: Biochemical QPCT and QPCTL Activity Assay.
Assay [2] has as its target Glutaminyl-peptide cyclotransferase (Homo sapiens, UniProt Q16769). Description: Biochemical QPCT and QPCTL Activity Assay.

Glutaminyl-peptide cyclotransferase-like protein, sequence (Q9NXS2 whole entry): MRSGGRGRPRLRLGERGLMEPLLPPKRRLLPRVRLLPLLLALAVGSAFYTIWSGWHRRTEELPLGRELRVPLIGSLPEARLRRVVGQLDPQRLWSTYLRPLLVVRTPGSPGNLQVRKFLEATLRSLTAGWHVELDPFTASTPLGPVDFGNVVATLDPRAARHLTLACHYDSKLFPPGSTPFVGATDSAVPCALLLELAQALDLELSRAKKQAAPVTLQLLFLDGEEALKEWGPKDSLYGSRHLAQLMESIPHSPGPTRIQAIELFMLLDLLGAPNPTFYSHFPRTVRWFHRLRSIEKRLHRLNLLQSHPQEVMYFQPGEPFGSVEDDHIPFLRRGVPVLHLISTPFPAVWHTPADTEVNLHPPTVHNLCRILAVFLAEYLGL
Glutaminyl-peptide cyclotransferase, sequence (Q16769 whole entry): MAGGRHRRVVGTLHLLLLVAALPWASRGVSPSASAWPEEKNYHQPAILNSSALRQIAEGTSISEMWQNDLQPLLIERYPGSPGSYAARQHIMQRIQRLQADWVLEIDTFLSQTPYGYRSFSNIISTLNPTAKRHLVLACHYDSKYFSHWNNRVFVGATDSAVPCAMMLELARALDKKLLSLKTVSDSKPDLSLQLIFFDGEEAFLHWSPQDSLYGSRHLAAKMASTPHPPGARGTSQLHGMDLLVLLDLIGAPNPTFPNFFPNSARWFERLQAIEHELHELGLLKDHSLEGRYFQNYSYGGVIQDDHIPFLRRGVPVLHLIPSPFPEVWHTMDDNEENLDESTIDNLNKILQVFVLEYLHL

`Cn1cnnc1C1(F)CCN(c2c(C#N)ccnc2-c2cnc(F)c(OCC3CC3)c2)CC1` [US20240059675, Example 26]: the IC50 in assay [1] was found to be 1 nM.

For `Cn1cnnc1C1(F)CCN(c2c(C#N)ccnc2-c2ccc(F)nc2)CC1` [US20240059675, Example 1], the midpoint of inhibition in assay [2], the IC50, lay at 4 nM. In the case of `Cn1cnnc1C1(F)CCN(c2c(C#N)ccnc2-c2cnc3nn(C(C)(C)C(F)(F)F)cc3c2)CC1` [US20240059675, Example 29], the values for the IC50 in assay [2] and in assay [1] were 3 nM and 2 nM, respectively.

A word on the IC50: it is the point on the concentration scale where inhibition reaches its midpoint.
